Laboratory results reported in article PMC9861623, “New Ferulic Acid and Amino Acid Derivatives with Increased Cosmeceutical and Pharmaceutical Potential” (Pharmaceutics, 2022).
“And” between values parts separate entries of the source, which are not always exact repeats. Equal values may be shown once.

Experiments:
[1] = parameters: method as in PMID 20692328; conditions: cited from earlier work
[2] = system: UVB irradiated human melanocytes; parameters: method as in PMID 19274591; conditions: cited from earlier work
[3] = n-octanol/water partition coefficient by shake flask method; format: physicochemical; conditions: for log PO/W: n-octanol/water, shake flask, 25 °C
Description: The n-octanol/water partition coefficient (log PO/W) was determined for ferulic acid and its derivatives by shake flask method. n-Octanol saturated with water and water saturated with n-octanol were prepared at 25 °C, 24 h prior to their use in the experiments. Then, a sample of 10 mg of compound was weighed with the accuracy of 0.01 mg in a 16 cm^3 screwed vial and dissolved in 5 cm^3 of n-octanol. Next, 5 cm^3 of water was added to the vial. The resulting two-phase mixture was kept in water bath shaker at 25 °C for 2 h and was strongly shaken to reach the partition equilibrium of the compound between the phases. Then the mixture was left unshaken for 30 min and 1.0 cm^3 of water phase was carefully taken out to centrifuge tube. The sample was next centrifuged for 10 min at 7500 rpm at 25 °C to ensure the most precise phase separation. The concentration of compound in water phase was then determined using HPLC method. The partition coefficient, log PO/W was calculated according to the formula: logPO/W=logC0V0−CWVW/CWVW where: C0—initial concentration of the compound in n-octanol, calculated based on the weighed mass of compound, mg·cm^−^3; V0—volume of n-octanol, cm^3; CW—concentration of the compound in water after partition equilibrium, mg·cm^−^3; VW—volume of water, cm^3.

[4] = DPPH radical scavenging assay of the compounds
Description: (§1) To determine the antioxidant capacity of ferulic acid and its derivatives the DPPH method was used. The analyses were performed using the Hitachi UV-Vis Spectrophotometer U-5100 at the wavelength λ = 517 nm. Trolox (6-hydroxy-2,5,7,8-tetramethylchroman-2-carboxylic acid) was used as a reference substance. The antioxidant activity was expressed as %RSA and mmol Trolox dm^−3. […]. Blank samples without antioxidant were prepared in the same way. The tubes were wrapped in aluminum foil and were sealed with a stopper and then incubated for 10 min at room temperature. After this time, spectrophotometric measurements were carried out in triplicate. For determination of antioxidant activity of the acceptor fluid after 24 h of permeation and solutions obtained by extraction of the skin obtained after penetration study, 0.15 mL samples of each solutions were separately added to 2.85 mL of DPPH solution and spectrophotometric measurements were performed. The antioxidant activity was expressed as mmol Trolox·dm^−3.

[5] = Skin permeation in Franz diffusion cells; format: in vitro ADME, pig; conditions: 24 h, 10 mg as FA applied
Description: In the experiment, abdominal porcine skin coming from the local slaughterhouse was used. Pig skin was chosen because of its similar permeability to human skin [34, 35]. The fresh abdominal porcine skin was washed several times in PBS buffer pH 7.4. The skin of 0.5 mm in thickness was dermatomed and divided into 2 cm × 2 cm pieces. The skin samples were wrapped in aluminum foil and stored at −20 °C until use, not longer than 3 months. According to Badran et al., this storage time at this temperature is safe to keep skin barrier properties. Immediately before the experiment, the skin samples were slowly thawed at room temperature for 30 min and then were hydrated by PBS pH 7.4 [37, 38, 39, 40]. Such prepared skin was mounted on donor chamber. Only the undamaged skin pieces with an even thickness were chosen for experiments. The integrity of the skin was checked by impedance measurement using an LCRmeter4080 (Conrad Electronic, Hirschau, Germany), operated in parallel mode at an alternating frequency of 120 Hz (error at kΩ values < 0.5%). The tips of measuring probes were immersed in the donor and acceptor chamber containing PBS (pH 7.4), as described previously. Only skin samples of impedance > 3 kΩ were applied as such impedance is similar to the electrical resistance of human skin [42].
The concentration of FA and its derivatives in the acceptor fluid and in the fluid obtained by skin extraction after permeation experiment was assessed using liquid chromatography system (Knauer, Berlin, Germany) consisting of a model 2600 UV detector, Smartline model 1050 pump and Smartline model 3950 autosampler. HPLC was controlled by ClarityChrom 2009 software. The detector was operated at 280 nm. The separations were performed on 125 mm × 4 mm ID chromatographic column filled with Hyperisil ODS (C18), particle size 5 µm, in isocratic mode. The mobile phase consisted of acetonitrile, 1% acetic acid, and MeOH (47/47/6 v/v/v) and was pumped at flow rate of 1 mL min^−1. The column temperature was set at 25 °C, and the injection volume was 20 µL.
(§2) The permeation experiments were performed using Franz diffusion cells (Phoenix DB-6, ABL&E-JASCO, Wien, Austria). The diffusion was 1 cm^2. The volume of the acceptor chamber was 8 mL. This chamber was filled with PBS solution (pH 7.4). During experiment, a constant temperature of 37.0 ± 0.5 °C was maintained in each diffusion unit. The acceptor chamber content was stirred with a magnetic stirring bar at the same speed for all cells. The prepared pig skin was mounted on each donor chamber. As previously mentioned, only undamaged skin pieces with an even thickness were chosen for experiments. Thereafter, the hydrogel or emulsion vehicle/preparation in 1 g portion was put on the skin in donor cells. For comparison, 1 mL ethanolic solution containing either FA or its derivatives was applied to another donor chamber. The amount of the FA and its derivatives applied on the skin expressed as the mass of ferulic acid was 0.01 g and was the same for each carrier. The penetration experiments were carried out for 24 h. The samples were collected after 1 h, 2 h, 3 h, 4 h, 5 h, 6 h, 8 h, and 24 h. Aliquots of the acceptor fluid (0.5 mL) were withdrawn and to each acceptor chamber the same volume of fresh PBS solution was added. The FA and its derivatives’ concentrations in the acceptor fluid were measured by HPLC method (Section 2.6.2). The cumulative mass (µg·cm^−2) and penetration rate (µg·cm^−2·h^−1) were calculated. The acceptor fluid collected after 24 h of permeation was also measured for antioxidant activity and total polyphenol content (as described in Section 2.5.1 and Section 2.5.2).

[6] = DPPH antioxidant activity of acceptor fluid after 24 h permeation; parameters: species or system pig; conditions: after 24 h penetration
Description: as §1, §2

[7] = DPPH antioxidant activity of solution obtained after skin extraction; parameters: species or system pig; conditions: after 24 h penetration
Description: as §1
The accumulation of the FA and its derivatives in the skin after 24 h permeation process through the skin were determined using a modification of the methods described by Janus et al. and Taokaew et al.. After 24 h of permeation experiment, the skin samples were removed from the Franz diffusion cell, washed three times with 0.5% sodium lauryl sulfate solution and dried at room temperature. Next, after cutting out the diffusion area of each skin sample, the samples were immersed in 2 mL of absolute ethanol and continuously stirred at 300 rpm at room temperature for 24 h. The samples were then centrifuged, and clear solutions were collected and analyzed by HPLC method for the determination of FA and its derivatives. The accumulation of the active substance in the skin was calculated by dividing the amount of the drug remaining in the skin by a mass of skin sample and was expressed in mass active substance per mass of the skin (µg g^−1). For solution obtained after skin extraction, the antioxidant activity and total polyphenol content were also determined (as described in Section 2.5.1 and Section 2.5.2).

[8] = Thermogravimetric (TG) analysis, thermal stability; format: physicochemical; conditions: air atmosphere, 10 °C·min^−1; for Td onset, the onset of decomposition: TG; for Td max, temperature of the fastest mass loss of the sample: TG/DTG
Description: Samples of 2–5 mg, loaded in aluminium crucibles, were heated from 30 °C to 600 °C at the heating rate of 10 °C·min^−1, in the air atmosphere (25 mL·min^−1) with nitrogen flow (10 mL·min^−1) as the purge gas.

[9] = molar ratio antioxidant:DPPH 0.1, 10 min
[10] = molar ratio antioxidant:DPPH 1.0, 10 min
[11] = molar ratio antioxidant:DPPH 2.0, 10 min
[12] = from solution in 70% (v/v) ethanol

| Structure (SMILES) | skin permeation compared with pure FA [1] | log PO/W [3] | Antioxidant activity %RSA [4, 9] | Antioxidant activity, Trolox equivalents [4, 9] | Antioxidant activity %RSA [4, 10] [b %RSA] | Antioxidant activity, Trolox equivalents [4, 10] [b mmol Trolox dm^−3] | Antioxidant activity %RSA [4, 11] | Antioxidant activity, Trolox equivalents [4, 11] | Cumulative Permeation Mass ([5]; from emulsion) [a µg FA·cm^−2] | Cumulative Permeation Mass ([5]; from hydrogel) [a µg FA·cm^−2] | Cumulative Permeation Mass [5, 12] | DPPH antioxidant activity of the acceptor fluid ([6]; emulsion) | DPPH antioxidant activity of the acceptor fluid ([6]; ethanol solution) | DPPH antioxidant activity of the acceptor fluid ([6]; hydrogel) | DPPH antioxidant activity of the solution obtained after skin extraction ([7]; emulsion) | DPPH antioxidant activity of the solution obtained after skin extraction ([7]; ethanol solution) [a mmol Trolox dm^−3] | DPPH antioxidant activity of the solution obtained after skin extraction ([7]; hydrogel) | Td onset, the onset of decomposition [8] [°C] | Td max, temperature of the fastest mass loss of the sample [8] [°C] | further results |
| --- | --- | --- | --- | --- | --- | --- | --- | --- | --- | --- | --- | --- | --- | --- | --- | --- | --- | --- | --- | --- |
| COc1cc(/C=C/CO)ccc1O [CA, coniferyl alcohol] | permeated the skin to a higher degree than pure FA |  |  |  |  |  |  |  |  |  |  |  |  |  |  |  |  |  |  |  |
| COc1cc(/C=C/C=O)ccc1O [CD, coniferyl aldehyde] | permeated the skin to a higher degree than pure FA |  |  |  |  |  |  |  |  |  |  |  |  |  |  |  |  |  |  |  |
| CCOC(=O)/C=C/c1ccc(O)c(OC)c1 [FAEE, ferulic acid ethyl ester] | permeated the skin to a higher degree than pure FA |  |  |  |  |  |  |  |  |  |  |  |  |  |  |  |  |  |  | production of ROS [2]: reduced the production of ROS |
| CCCOC(=O)CN.COc1cc(/C=C/C(=O)O)ccc1O [GPr[FA], glycine propyl ester ferulate] |  | 0.582 ± 0.019 | 17.6 ± 0.001 %RSA and 17.6 ± 0.001 a %RSA | 0.099 ± 0.001 mmol Trolox dm^−3 and 0.099 ± 0.001 a mmol Trolox dm^−3 | 78.0 ± 0.001 | 0.681 ± 0.001 | 86.6 ± 0.001 %RSA and 86.6 ± 0.001 b %RSA | 0.764 ± 0.001 mmol Trolox dm^−3 and 0.764 ± 0.001 b mmol Trolox dm^−3 | 101.70 ± 26.47 | 268.16 ± 12.71 | 378.26 ± 2.29 a µg FA·cm^−2 | 0.059 ± 0.010 a mmol Trolox dm^−3 | 0.097 ± 0.021 b mmol Trolox dm^−3 | 0.069 ± 0.002 a mmol Trolox dm^−3 | 0.235 ± 0.037 a mmol Trolox dm^−3 | 0.257 ± 0.026 | 0.298 ± 0.009 a mmol Trolox dm^−3 | 129.6 | 145.3 | Share of compound partitioned to n-octanol ([3]; from log PO/W): 79% |
| CCCOC(=O)[C@@H](N)CC(C)C.COc1cc(/C=C/C(=O)O)ccc1O [LPr[FA], L-leucine propyl ester ferulate] |  | 0.454 ± 0.009 | 17.6 ± 0.001 %RSA and 17.6 ± 0.001 a %RSA | 0.098 ± 0.001 mmol Trolox dm^−3 and 0.098 ± 0.001 a mmol Trolox dm^−3 | 79.5 ± 0.001 | 0.696 ± 0.001 | 87.8 ± 0.001 %RSA and 87.8 ± 0.001 b %RSA | 0.776 ± 0.001 mmol Trolox dm^−3 and 0.776 ± 0.001 b mmol Trolox dm^−3 | 119.29 ± 19.72 | 267.48 ± 24.57 | 415.12 ± 8.71 µg FA·cm^−2 and 415.12 ± 8.71 b µg FA·cm^−2 | 0.053 ± 0.005 mmol Trolox dm^−3 and 0.053 ± 0.005 a mmol Trolox dm^−3 | 0.098 ± 0.011 mmol Trolox dm^−3 and 0.098 ± 0.011 a mmol Trolox dm^−3 | 0.063 ± 0.009 mmol Trolox dm^−3 and 0.063 ± 0.009 a mmol Trolox dm^−3 | 0.257 ± 0.014 ab mmol Trolox dm^−3 | 0.255 ± 0.038 | 0.298 ± 0.009 mmol Trolox dm^−3 and 0.320 ± 0.030 ab mmol Trolox dm^−3 | 126.0 | 156.0 | DPPH antioxidant activity of the solution obtained after skin extraction ([7]; ethanol solution, listed as Leu[FA]): 0.255 ± 0.038 mmol Trolox dm^−3 |
